Data: US20230158049A1, “COMPOSITIONS AND METHODS FOR TREATING VIRUSES” (University of Virginia Patent Foundation, priority 2020, published 2023)

Test system: SARS-CoV-2
Settings: […]

## C[C@H]1c2cccc(O)c2C(=O)C2=C(O)[C@]3(O)C(=O)C(C(N)=O)=C(O)[C@@H](N(C)C)[C@@H]3[C@@H](O)[C@@H]21 [doxycycline]
Doxycycline 100 mg twice daily with osimertinib
  time to symptom improvement: ≤ 1 week
Doxycycline 200 mg then 100 mg daily for 5 days
  time to improvement in all symptoms: ≤ 5 days
